What was measured:
[1] = tested on: P. falciparum male gametocytes; assay: P. falciparum Dual Gamete Formation Assay (PfDGFA), male readout (exflagellation); type: cell-based, Plasmodium falciparum NF54; conditions: for IC50: this study, read-out: Pf DGFA IC50 MALE; for % inhibition male (individual replicates) R1: replicate R1; for % inhibition male (individual replicates) R3: replicate R3; for % inhibition male (individual replicates) R4: replicate R4; for Average inhibition male (%): average of replicates
Method in brief: (§1)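 Male and female gamete formation were quantified by microscopy image analysis following 24 h incubation of mature NF54 gametocytes with compound and activation at 28°C with xanthurenic acid.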

[2] = tested on: P. falciparum female gametocytes; assay: P. falciparum Dual Gamete Formation Assay (PfDGFA), female readout (Pfs25-positive female gametes); type: cell-based, Plasmodium falciparum NF54; conditions: for IC50: this study, read-out: Pf DGFA IC50 FEM; for % inhibition female (individual replicates) R1: replicate R1; for % inhibition female (individual replicates) R3: replicate R3; for % inhibition female (individual replicates) R4: replicate R4; for Average inhibition female (%): average of replicates
Method in brief: as §1

HepG2 cells = assay: HepG2 cytotoxicity counter-screen; conditions: for Mean TOX: mean of the HepG2 TOX50 values; for DGFA Tox50 HepG2: HepG2 value reported with the DGFA screen
[3] = PfDGFA at 2µM, 24h preincubation with gametocytes prior to induction of gametogenesis
[4] = PfDGFA at 2µM, 24h preincubation
[5] = 2µM, 24h preincubation with gametocytes prior to induction of gametogenesis
[6] = 2µM, 24h preincubation with gametocytes

| Structure (SMILES) | Cytotox ratio Pf Male [1] | IC50 [1] | Cytotox ratio Pf Female [2] | IC50 [2] | Mean TOX (HepG2 cells) | also measured |
| --- | --- | --- | --- | --- | --- | --- |
| C=CCNc1cc(-c2ccccn2)nc(-c2ccccn2)n1 [TC01] | 13.8 | 910 nM | 2.6 | 4890 nM | 12.58 µM | – |
| c1ccc2[nH]c(CN(Cc3nc4ccccc4[nH]3)Cc3nc4ccccc4[nH]3)nc2c1 [TC03] | 14.8 | 6750 nM | 10.0 | – | 100.00 µM | DGFA Tox50 HepG2 (HepG2 cells): 100 µM |
| FC(F)(F)c1cccc(NC(=S)NN=Cc2ccccn2)c1 [TC06] | 142.9 | 700 nM | 142.9 | 700 nM | 100.00 µM | DGFA Tox50 HepG2 (HepG2 cells): 100 µM |
| O=C(Cc1cccc(O)c1)NCC(Cc1ccc(O)cc1)c1ccccc1 (stereo not drawn) [TC08] | 58.1 | 1720 nM | 10.0 | – | 100.00 µM | DGFA Tox50 HepG2 (HepG2 cells): 100 µM |
| N=C(N)NCCN(Cc1ccccc1)c1ccc(Cl)cc1 [TC09] | 72.7 | 670 nM | 7.5 | 6500 nM | 48.68 µM | – |
| O=C(NC1CCN(Cc2ccccc2)CC1)c1cc(C(=O)NC2CCN(Cc3ccccc3)CC2)cc(C(=O)NC2CCN(Cc3ccccc3)CC2)c1 [TC20] | 13.0 | 7710 nM | 10.0 | – | 100.00 µM | DGFA Tox50 HepG2 (HepG2 cells): 100 µM |
| CC(C)S(=O)(=O)N1CCN(Cc2ccc3c(c2)nc(NC(=O)c2ccsc2)n3C[C@H](O)c2ccccc2)CC1 [TC25] | 20.7 | 410 nM | 0.848 | – | 8.48 µM | – |
| Oc1cccc(CNCCCN(Cc2ccccc2)c2ccccc2)c1 [TC30] | 13.1 | 1060 nM | 1.8 | 7740 nM | 13.84 µM | – |
| Fc1ccc2[nH]c(-c3ccc(-c4ccc(CNCCN5CCNCC5)cc4)cc3)nc2c1.O=C(O)C(F)(F)F [TC31] | 12.1 | 2390 nM | 2.9 | – | 28.84 µM | – |
| COc1cc2c(cc1S(=O)(=O)c1ccc(COc3ccc(C(F)(F)F)cc3)cc1)CNCC2.Cl [TC36] | 12.0 | 1380 nM | 1.7 | – | 16.60 µM | – |
| O=C(c1ccc(-c2cnc3[nH]cc(-c4ccc(C(=O)N5CCOCC5)cc4)c3c2)cc1)N1CCOCC1 [TC43] | 65.9 | 440 nM | 2.9 | – | 28.99 µM | – |
| CN1CCC(NCc2ccc(-c3cnc(NCc4ccccc4)nc3)cc2)CC1.O=C(O)C(F)(F)F [TC47] | 11.6 | 960 nM | 1.7 | 6570 nM | 11.10 µM | – |
| Cc1cccc(Nc2nc(NCCCCN)nc3cc[nH]c(=O)c23)c1.O=C(O)C(F)(F)F [TC51] | 75.4 | 380 nM | 2.9 | – | 28.66 µM | – |
| CCCCNS(=O)(=O)c1ccc(NC(=O)c2cc([N+](=O)[O-])ccc2Cl)cc1 [TC52] | 270.3 | 370 nM | 13.2 | 7560 nM | 100.00 µM | DGFA Tox50 HepG2 (HepG2 cells): 100 µM |
| Cc1ccc(C)c(S(=O)(=O)NCC2CCN(Cc3ccc(O)cc3)CC2)c1.O=C(O)C(F)(F)F [TC53] | 54.7 | 1490 nM | 8.2 | – | 81.55 µM | – |
| CN1CCN(c2ccc(Nc3c4ccccc4nc4ccccc34)cc2)CC1 [TC57] | 45.2 | 590 nM | 3.0 | 8840 nM | 26.65 µM | – |
| Nc1nc(N)c2cc(CNc3ccc(Cl)c(Cl)c3)ccc2n1 [TCMDC-141974] | – | – | – | – | – | % inhibition male (individual replicates) R1 [1, 3]: 19.3%; % inhibition male (individual replicates) R3 [1, 3]: 26.8%; % inhibition male (individual replicates) R4 [1, 3]: 9.5%; Average inhibition male (%) [1, 4]: 20.3%; % inhibition female (individual replicates) R1 [2, 3]: 1.5%; % inhibition female (individual replicates) R3 [2, 3]: -5.9%; % inhibition female (individual replicates) R4 [2, 3]: 0.5%; Average inhibition female (%) [2, 4]: -1.4% |
| COc1ccc2c(c1)nc(CNC(=N)N)n2Cc1ccc(Cl)cc1.Cl [TCMDC-142042] | – | – | – | – | – | Average inhibition male (%) [1, 5]: -2.9%; % inhibition male (individual replicates) R1 [1, 5]: -15.5%; % inhibition male (individual replicates) R3 [1, 5]: -14.5%; % inhibition male (individual replicates) R4 [1, 5]: 30.2%; HitlevelM ([1]; 2µM, 24h preincubation, hits selected on >50% inhibition in the male readout across replicates): 0; Activity ([1]; PfDGFA at 2µM, 24h preincubation, hit = >50% inhibition in male or female readout in at least 3 replicates, 0 = no class assigned): 0; Average inhibition female (%) [2, 5]: 8.7%; % inhibition female (individual replicates) R1 [2, 5]: 5.3%; % inhibition female (individual replicates) R3 [2, 5]: -8.2%; % inhibition female (individual replicates) R4 [2, 5]: 2.2%; HitlevelF ([2]; 2µM, 24h preincubation, hits selected on >50% inhibition in the female readout across replicates): 0 |
| Cc1ccc2nc(C)cc(N/N=C/c3ccc([N+](=O)[O-])cc3)c2c1 [TCMDC-142070] | – | – | – | – | – | % inhibition male (individual replicates) R1 [1, 3]: -12.6%; % inhibition male (individual replicates) R3 [1, 3]: -7.9%; % inhibition male (individual replicates) R4 [1, 3]: 12.9%; Average inhibition male (%) [1, 4]: -0.848%; % inhibition female (individual replicates) R1 [2, 3]: 9.6%; % inhibition female (individual replicates) R3 [2, 3]: -4.2%; % inhibition female (individual replicates) R4 [2, 3]: -9.4%; Average inhibition female (%) [2, 4]: 1.3% |
| CC1(C)N=C(N)N=C(N)N1c1ccc(Cl)c(Cl)c1.Cl [TCMDC-142180] | – | – | – | – | – | % inhibition male (individual replicates) R1 [1, 3]: 8.4%; % inhibition male (individual replicates) R4 [1, 3]: -27.5%; Average inhibition male (%) [1, 4]: 6.9%; % inhibition female (individual replicates) R1 [2, 3]: -5.5%; % inhibition female (individual replicates) R3 [2, 3]: -6.4%; % inhibition female (individual replicates) R4 [2, 3]: 1.4%; Average inhibition female (%) [2, 4]: -4.7% |
| CCOc1ccc2c(=NN=Cc3ccc(OC)c(OC)c3)cc(C)[nH]c2c1 [TCMDC-142206] | – | – | – | – | – | Average inhibition male (%) [1, 5]: 11.1%; % inhibition male (individual replicates) R1 [1, 5]: 9.5%; % inhibition male (individual replicates) R3 [1, 5]: 6.4%; % inhibition male (individual replicates) R4 [1, 5]: 28.2%; HitlevelM ([1]; 2µM, 24h preincubation, number of replicates with >50% inhibition in the male readout): 0; Average inhibition female (%) [2, 5]: 22.4%; % inhibition female (individual replicates) R1 [2, 5]: 27.0%; % inhibition female (individual replicates) R3 [2, 5]: -3.4%; % inhibition female (individual replicates) R4 [2, 5]: 40.7%; HitlevelF ([2]; 2µM, 24h preincubation, number of replicates with >50% inhibition in the female readout): 0 |
| Cl.Nc1c(I)cc(C(=O)Nc2ccc3nc4c(c(N)c3c2)CCCC4)cc1I [TCMDC-142289] | – | – | – | – | – | Average inhibition male (%) [1, 6]: 92.1%; % inhibition male (individual replicates) R1 [1, 6]: 89.6%; % inhibition male (individual replicates) R4 [1, 6]: 96.1%; Average inhibition female (%) [2, 6]: 49.6%; % inhibition female (individual replicates) R1 [2, 6]: 51.7%; % inhibition female (individual replicates) R3 [2, 6]: 34.7%; % inhibition female (individual replicates) R4 [2, 6]: 48.7% |
| O=c1c(NCCCN(Cc2ccc(F)cc2)c2ccccn2)c(NCc2ccncc2)c1=O [TCMDC-142310] | – | – | – | – | – | % inhibition male (individual replicates) R1 [1, 3]: -3.0%; % inhibition male (individual replicates) R3 [1, 3]: -19.8%; % inhibition male (individual replicates) R4 [1, 3]: -2.5%; Average inhibition male (%) [1, 4]: -8.8%; % inhibition female (individual replicates) R1 [2, 3]: 6.5%; % inhibition female (individual replicates) R3 [2, 3]: -28.2%; % inhibition female (individual replicates) R4 [2, 3]: -7.1%; Average inhibition female (%) [2, 4]: -7.2% |
